Like-named read-outs stand apart in the source and are kept apart here.
System: LPS-induced TNF-α expression
Experiment: LPS-induced TNF-α expression in murine peritoneal macrophages (ELISA)
Format: cell-based
Conditions: Mus musculus, Peritoneal macrophage
Experimental: C57BL/6 mice were injected intraperitoneally with 3% thioglycollate, and their peritoneal macrophages were collected 72 h later. Macrophages were cultured in DMEM supplemented with 10% FBS and 50 μg/mL gentamicin at 37° C. in a humidified atmosphere of 5% CO2. […] Cell lysates were subjected to SDS-PAGE for detection of COX2 and iNOS expression. The presence of nitrite (a metabolite of NO) in the culture medium was analyzed by the Griess assay (Sigma-Aldrich), as previously described (16).

[1] = 2 h, read-out: Inhibition of 2 h-TNF-α (%)
[2] = 4 h, read-out: Inhibition of 4 h-TNF-α (%)

Row | Compound | inhibition at 10 µM [1] [%] | inhibition at 10 µM [2] [%]
1 | CC(=O)CC[C@@H](C)[C@H]1CCC2C3=C(C(=O)C[C@@]21C)[C@@]1(C)CCC(=O)[C@@H](C)C1CC3=O (stereo partly shown) [No. 21, Camphoratin L] | 73.9 | 30.6
2 | C=C(CC[C@@H](C)[C@H]1CC[C@H]2C3=C(C(=O)[C@H](O)[C@]12C)[C@@]1(C)CC[C@@H](OC=O)[C@@H](C)[C@@H]1CC3)C(C)C(=O)O (stereo partly shown) [No. 11, Antcin M 3-O-formate] | < 0 | 88.3
3 | C=C(CC[C@@H](C)[C@H]1CC[C@H]2C3=C(C(=O)[C@H](O)[C@]12C)[C@@]1(C)CC[C@@H](O)[C@@H](C)[C@@H]1CC3=O)C(C)C(=O)O (stereo partly shown) [No. 4, Zhankuic acid C] | 67.5 | 88.8
4 | C=C(CC[C@@H](C)[C@H]1CC[C@@]2(O)C3=C(C(=O)C[C@]12C)[C@@]1(C)CCC(=O)[C@@H](C)C1C[C@@H]3O)C(C)C(=O)O (stereo partly shown) [No. 14, Camphoratin D] | 65.8 | 81.7
5 | C=C(CC[C@@H](C)[C@H]1CC[C@H]2C3=C(C(=O)[C@H](O)[C@]12C)[C@@]1(C)CC[C@@H](OC=O)[C@@H](C)[C@@H]1CC3=O)C(C)C(=O)O (stereo partly shown) [No. 5, Zhankuic acid C 3-O-formate] | 1.62 | 45.3
6 | C=C(CC[C@@H](C)[C@H]1CC[C@H]2C3=C(C(=O)C[C@]12C)[C@@]1(C)CCC(=O)[C@@H](C)[C@@H]1CC3)C(C)C(=O)OC (stereo partly drawn) [No. 26, Methyl-4α-methylergost-8,24(28)-diene-3,11-dion-26-oate] | 49.3 | < 0
7 | C=C(CC[C@@H](C)[C@H]1CCC2C3=C(C(=O)C[C@@]21C)[C@@]1(C)CCC(=O)[C@@H](C)C1C[C@@H]3O)C(C)C(=O)OC (stereo partly shown) [No. 16, Camphoratin F] | 38.2 | 80.2
8 | C=C(CC[C@@H](C)[C@H]1CCC2C3=C(C(=O)[C@H](O)[C@@]21C)[C@@]1(C)CCC(=O)[C@@H](C)C1CC3=O)C(C)C(=O)OC (stereo partly shown) [No. 22, Camphoratin N] | 58.3 | 89
9 | C=C(CC[C@@H](C)[C@H]1CC[C@H]2C3=C(C(=O)[C@H](O)[C@]12C)[C@@]1(C)CC[C@@H](O)[C@@H](C)[C@@H]1CC3=O)C(C)C(=O)OC (stereo partly shown) [No. 27, Methyl antcinate H] | 79.8 | 91.5
10 | C=C(CC[C@@H](C)[C@H]1CCC2C3=C(C(=O)C[C@@]21C)[C@@]1(C)CC[C@@H](O)[C@@H](C)C1CC3=O)C(C)C(=O)OC (stereo partly shown) [No. 15, Camphoratin E] | 78 | 89.4
11 | C=C(CC[C@@H](C)[C@H]1CC[C@H]2C3=C(C(=O)C[C@]12C)[C@@]1(C)CC[C@@H](O)[C@](C)(O)[C@@H]1C[C@@H]3O)C(C)C(=O)O (stereo partly shown) [No. 10, Antcin K] | 49.4 | 88.5
12 | C=C(CC[C@@H](C)[C@H]1CC[C@H]2C3=C(C(=O)C[C@]12C)[C@@]1(C)CC[C@@H](O)[C@@H](C)C1C[C@@H]3O)C(C)C(=O)O (stereo partly shown) [No. 13, Camphoratin B] | 40.7 | 87
13 | C=C(CC[C@@H](C)[C@H]1CC[C@H]2C3=C(C(=O)[C@H](O)[C@]12C)[C@@]1(C)CC[C@@H](O)[C@@H](C)C1C[C@@H]3O)C(C)C(=O)O (stereo partly shown) [No. 12, Camphoratin A] | 22.8 | 29.9
14 | C=C(CC[C@@H](C)[C@H]1CCC2C3=C(C(=O)C[C@@]21C)[C@@]1(C)CCC(=O)[C@@H](C)C1CC3)C(C)C(=O)OC (stereo partly shown) [No. 8, Antcin A methyl ester] | 19.4 | 85.2
15 | C=C(CC[C@@H](C)[C@H]1CCC2C3=C(C(=O)C[C@@]21C)[C@@]1(C)CCC(=O)[C@@H](C)C1C[C@@H]3O)C(C)C(=O)O (stereo partly shown) [No. 9, Antcin C] | 43.6 | 43.1
16 | C=C(CC[C@@H](C)[C@H]1CC[C@@H]2C3=C(C(=O)C[C@@]21C)[C@@]1(C)CCC(=O)[C@@H](C)C1CC3)C(C)C(=O)OC (stereo partly shown) [No. 19, Camphoratin J] | 73.4 | 90.2
17 | C=C(CCC(C)C1CCC2C3=C(C(=O)C[C@@]21C)[C@@]1(C)CCC(=O)[C@@H](C)C1CC3=O)C(C)C(=O)O (stereo in doubt) [No. 1, Zhankuic acid A] | 42.4 | 85.6
18 | C=C(CC[C@@H](C)[C@H]1CCC2C3=C(C(=O)C[C@@]21C)[C@@]1(C)CCC(=O)[C@@H](C)C1CC3=O)C(C)C(=O)OCC (stereo partly shown) [No. 6, Zhankuic acid D] | 67.1 | 54.8
19 | C=C(CC[C@@H](C)[C@H]1CC[C@H]2C3=C(C(=O)C[C@]12C)[C@@]1(C)CCC(=O)[C@@H](C)[C@@H]1CC3)C(C)C(=O)O (stereo partly shown) [No. 7, Antcin A] | 40.6 | 90.7
20 | C=C(CC[C@@H](C)[C@H]1CCC2C3=C(C(=O)C[C@@]21C)[C@@]1(C)CC[C@@H](O)[C@@H](C)C1CC3=O)C(C)C(=O)O (stereo partly shown) [No. 3, Zhankuic acid B] | 68.9 | 88.6
21 | CC(C)[C@@H](C)/C=C/[C@@H](C)[C@H]1CC[C@@H]2[C@]1(C)CC[C@H]1[C@]23C=C[C@]2(C[C@@H](O)CC[C@]12C)OO3 [No. 25, Ergosterol peroxide] | < 0 | < 0
22 | C=C(CC[C@@H](C)[C@H]1CCC2C3=C(C(=O)C[C@@]21C)[C@@]1(C)CCC(=O)[C@@H](C)C1C[C@H]3O)C(C)C(=O)O (stereo partly shown) [No. 17, Camphoratin G] | 68.8 | 22.5
23 | C=C(CC[C@@H](C)[C@H]1CC[C@H]2C3=C(C(=O)C[C@]12C)[C@@]1(C)CCC(=O)[C@@H](C)[C@@H]1CC3=O)C(C)C(=O)OC (stereo partly shown) [No. 2, Zhankuic acid A methyl ester] | 51.6 | 80.3

Source: patent US20150374718A1, “Zhankuic Acid A and Analogs thereof and Their Use as an Anti-Inflammatory Agent” (National Cheng Kung University, priority 2014, published 2015)
